Holding throughout (experiment): growth of human tumour cells (NCI), 48 h
Assay [1] relates to SK-MEL-5 melanoma.
For assay [2], the system named is K-562 leukemia.
Assay [3] has as its system HCT-15 colon.
In assay [4] the test system is RPMI-8226 leukemia.
Assay [5] deals with MALME-3M melanoma.
Assay [6] deals with OVCAR-5 ovarian.
Assay [7] has as its system SNB-19 CNS.
Assay [8] deals with SN12C renal.
Assay [9] relates to UACC-62 melanoma.
Assay [10] concerns A498 renal.

Experimental findings from PubChem BioAssay (NCI) are described below.

The structures appear in SMILES notation.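 Tested at 5 concentrations; 48 h exposure; 96-well plates; endpoints linearly interpolated, else capped at highest concentration. The concentration for 50% growth inhibition is given as GI50. TGI is the concentration that stops growth completely.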

Take `c1cnc2c(c1)-n1cccc1C1(CCSCC1)NN2`: the TGI in [1], in assay [2], in assay [3], in assay [4], in [5] and in assay [6] was > 100 µM throughout. In addition, the TGI in assay [7] and in [8] was > 100 µM in each case.

`COc1cc(-c2cc(=O)c3cc4c(cc3[nH]2)OCO4)cc(OC)c1OC`: the TGI in assay [1], in [2], in [3], in [4], in assay [5] and in [9] was > 100 µM each time. Also, the TGI in assay [7] and in assay [8] was > 100 µM each time.

As to `CCCC(=O)c1c(NOC2OC(COC(C)=O)C(OC(C)=O)C(OC(C)=O)C2OC(C)=O)nc(OC)n(C)c1=O` (stereo not drawn), the TGI in assay [1], in assay [2], in assay [3], in assay [9], in assay [6] and in [7] was > 100 µM throughout. Besides, the TGI in [8] was > 100 µM.

`CC(=O)CC1CCC(=O)CCC(=O)OC(CC(C)=O)CCC(=O)CCC(=O)O1` (stereo not drawn): the TGI in assay [1], in assay [2], in assay [3], in assay [4], in assay [5] and in assay [9] was > 100 µM each time. In addition, the TGI in [6], in assay [7] and in [8] was > 100 µM in each case.

For the compound `Cc1nn(C(=O)c2ccccc2O)c2c1C(c1ccccc1)SC(N)=N2` (stereo not drawn), the TGI is > 10 µM in assay [1]; 4.76 µM in assay [2]; > 10 µM in assay [3]; 6.05 µM in [4]; > 10 µM in [5]; 9.73 µM in [9]. For the same compound, the TGI in [6], in [7] and in assay [8] was > 10 µM each time.

As for `Cc1c(CCCl)c(=O)n2c([nH]c3ccccc32)c1C#N`, the TGI in assay [1] was 2.8 µM; in assay [2], > 10 µM; in assay [3] it was 2.93 µM; in assay [4] it was 7.45 µM; in assay [5], 2.02 µM; in [9] it was 2.75 µM. Also, the TGI in [6] was 4.43 µM; in assay [8] it was 2.66 µM.

As to `Nc1ccc(C(=O)N/C(=C\C=C\c2ccco2)c2nc3[nH]c(=S)[nH]c(=O)c3[nH]2)cc1`, the TGI in [1], in assay [2], in [3], in assay [5], in assay [6] and in assay [7] was > 100 µM in each case. Further, the TGI in assay [8] was > 100 µM.

For `S=C(Nc1ccc(-c2nc3ccccc3[nH]2)cc1)NC1CCCCC1`, the GI50 in [2] was 31.5 µM; in [3], 16.2 µM; in [4], 16.6 µM; in assay [9], 15.3 µM; in assay [6] it was 42.4 µM; in assay [7], 46.6 µM. Moreover, the GI50 in assay [8] is 25 µM. Moreover, the TGI in [3] worked out at 37.9 µM; in assay [4], 90.2 µM; in assay [5], 51.9 µM; in assay [8], 55 µM.

For `Nc1nc(-c2cccc([N+](=O)[O-])c2)c(Br)c(=O)[nH]1`, the TGI was > 91.1 µM in assay [1]; > 100 µM in [2]; > 100 µM in assay [10]; > 100 µM in [3]; > 100 µM in assay [4]; > 69.7 µM in assay [9]. The TGI in assay [6] was > 100 µM; in assay [7] it was > 73 µM; in [8], > 100 µM.

In the case of `COC1=CC23C=CC1[C@@H](c1ccccc1)C2=C(C)C(=O)N3C(=O)NC1CCCCC1` (stereo partly drawn), the TGI in [1] is 29.2 µM; in assay [2], > 100 µM; in assay [10], 64.1 µM; in assay [3] it was 29.1 µM; in assay [9], 47.6 µM; in [6] it was 68.2 µM. The TGI in [7] was > 100 µM.

Regarding `C=CCNC(=S)N1CC(C)C(=O)Nc2ccccc21` (stereo not drawn), the TGI in assay [1], in assay [2], in assay [3], in assay [4], in assay [5] and in assay [9] was > 100 µM throughout. Also, the TGI in [6], in assay [7] and in assay [8] was > 100 µM each time.

`CC(=O)NC1=N/C(=C/c2cc([N+](=O)[O-])ccc2O)CN1C`: the TGI in assay [1], in [3], in assay [9], in [6], in assay [7] and in assay [8] was > 100 µM each time.

`CC1(C)C2CC(c3ccncc3)ON2C(C)(C)N1O` (stereo not drawn): the TGI in assay [1], in [2], in assay [3], in assay [4], in [5] and in assay [9] was > 100 µM each time. For the same compound, the TGI in [6], in assay [7] and in assay [8] was > 100 µM each time.

Consider `C=CCn1c(C)nc2cc(Nc3nc(Nc4ccc5nc(C)n(CC=C)c5c4)c4ccccc4n3)ccc21`, for which the GI50 in [1] was 1.36 µM; in [10] it was 1.46 µM; in assay [4] it was 1.24 µM; in [6] it was 0.751 µM. In addition, the TGI in [1] was 2.64 µM; in assay [10], 2.87 µM; in assay [4] it was 3.93 µM; in assay [6], 2 µM.

On to `CCN(CC)CCNc1c(OC)cc(C)c2sc3ccccc3c(=O)c12`, for which the TGI was found to be 3.4 µM in [1]; 4.04 µM in [2]; 14.4 µM in assay [3]; 3.05 µM in assay [4]; 6.08 µM in assay [5]; 3.36 µM in [9]. Also, the TGI in assay [6] worked out at 13.4 µM; in assay [7], 26.6 µM; in assay [8] it was 9.92 µM.

Regarding `O=c1cc(-c2ccccc2)[nH]c2cc(Cl)cc(Cl)c12`, the TGI in assay [1], in assay [2], in [3], in assay [4], in assay [5] and in assay [9] was > 100 µM in each case. Further, the TGI in assay [6] and in assay [8] was > 100 µM in each case.

Regarding `N#CCCc1nc2ccc(Br)cc2c(=O)n1CCO`, the TGI in [1], in assay [2], in assay [3], in assay [4], in [5] and in [9] was > 100 µM throughout. Moreover, in [8], the TGI is > 100 µM.

On to `COP1(=O)CC2C(Cl)(Cl)C2(C)C1` (stereo not drawn), for which the TGI in [1], in [2], in [4], in [9], in assay [7] and in assay [8] was > 100 µM in each case.

Turning to `Oc1ccc(N=Nc2ccc(Cl)cc2)cc1`, the TGI was determined as 24.1 µM in [1]; 55.7 µM in assay [2]; 41 µM in assay [10]; 32.8 µM in [3]; 80.4 µM in assay [4]; 36.4 µM in [9]. For the same compound, the values for the TGI in assay [6], in assay [7] and in assay [8] were 32.2 µM, 34.3 µM and 31.2 µM, respectively.

On to `CN(C)c1ccc(/C=C2\Oc3cc(O)ccc3C2=O)cc1`, for which the TGI in [1], in assay [2], in [3], in [4], in [9] and in [7] was > 100 µM each time. Further, the TGI in assay [8] is > 100 µM.

On to `O=C(Oc1ccc(O)c2c(=O)n3c(cc12)[nH]c1ccccc13)c1ccccc1`, for which the GI50 in assay [1] was 15.5 µM; in assay [2], 24.4 µM; in assay [10], 20.9 µM; in assay [3], 12.9 µM; in [4] it was 11.8 µM; in assay [9], 13.7 µM. Further, the results for the GI50 in assay [6], in assay [7] and in assay [8] were 28.4 µM, 37.7 µM and 12.6 µM, respectively. The TGI was 36.9 µM in [1]; 64 µM in assay [2]; 42.4 µM in assay [10]; 28.2 µM in [3]; 51.4 µM in assay [4]; 27.5 µM in assay [9]. Moreover, the TGI is 73.2 µM in [6], > 100 µM in assay [7] and 54 µM in assay [8].

As for `CCC(=O)c1cn(C)c(=O)c2ccccc12`, the TGI in assay [1], in assay [2], in assay [3], in assay [4], in [5] and in assay [9] was > 100 µM each time. The TGI in assay [6], in [7] and in assay [8] was > 100 µM throughout.

Regarding `CCOC(=O)CCC(=O)C1c2cccc(O)c2C(=O)c2c(O)cccc21`, the TGI in assay [1] is 1.4 µM; in assay [2] it was > 100 µM; in assay [5] it was 3.42 µM; in [9] it was 1.42 µM; in assay [6], 3.38 µM; in [7] it was 3.7 µM. This compound had a TGI in [8] of 3.22 µM.

For `O=C(Nc1ccc(Cl)cc1)Nc1ccc(Cl)c(Cl)c1`, the GI50 in assay [1] is 1.72 µM; in assay [2] it was 2.63 µM; in [10] it was 3.05 µM; in assay [3], 2.92 µM; in [4], 1.61 µM; in assay [9], 5.59 µM. Moreover, the GI50 in assay [6] was 4.29 µM; in assay [7] it was 4.01 µM; in [8], 3.42 µM. The TGI in assay [1] is 3.42 µM; in assay [2], > 100 µM; in [10], 7.94 µM; in [3] it was 62.5 µM; in assay [4], 4.73 µM; in assay [9], > 100 µM. For the same compound, the TGI in assay [6], in [7] and in [8] was > 100 µM each time.

As for `CC(C)=CC(C(O)c1ccccc1)S(=O)(=O)c1nccn1C` (stereo not drawn), the TGI in assay [1], in assay [2], in assay [3], in [4], in assay [5] and in assay [9] was > 100 µM in each case. In addition, the TGI in assay [6], in [7] and in [8] was > 100 µM throughout.

Regarding `O=[N+]([O-])c1c(/C=N/Nc2ccccc2)oc(-c2ccc3c(c2)OCO3)c1-c1ccc2c(c1)OCO2`, the TGI in assay [2] is 14.5 µM; in assay [4] it was 24.2 µM; in assay [5] it was > 100 µM; in assay [9], > 100 µM; in assay [6], > 100 µM; in assay [7], > 100 µM. Further, the TGI in [8] was > 100 µM.

In the case of `CCCCCCNC(=O)C1=C(C)NC(C)=C(C(=O)NCCCCCC)C1`, the TGI in [1], in assay [2], in assay [10], in [3], in assay [4] and in [9] was > 100 µM each time. Moreover, the TGI in [6], in [7] and in [8] was > 100 µM in each case.

On to `N#CC(C#N)=C(N)/C(C#N)=C\c1ccnc2ccccc12`, for which the TGI is 34 µM in assay [1]; 26.1 µM in assay [2]; 87 µM in assay [5]; 38.9 µM in assay [9]; > 100 µM in assay [6]; > 100 µM in [7]. For the same compound, in assay [8], the TGI is 60 µM.

As for `Cc1cc2c(CC(=O)O)[nH]nc2c(C(=O)O)c1C`, the TGI in [3], in [4], in assay [5], in [9], in assay [6] and in [7] was > 100 µM each time. In assay [8], the TGI was > 100 µM.

With `Cc1nc2ccc(C(F)(F)F)cc2nc1Nc1ccc(Cl)c(Cl)c1`, the TGI in assay [3] came to 18.5 µM; in assay [4] it was 88.1 µM; in assay [5], 35.7 µM; in assay [9] it was 29.1 µM; in [6] it was 28.7 µM; in [7] it was 27.1 µM. In assay [8], this compound registered a TGI of 24.3 µM.

For the compound `O=c1cc(-c2ccccc2)[nH]c2cccc(S)c12`, the TGI in [1], in [2], in assay [3], in assay [4], in assay [5] and in [9] was > 100 µM in each case. Besides, the TGI in [6], in assay [7] and in assay [8] was > 100 µM each time.
